Reference: patent US4954358A, “Multiplication inhibitor for Bacillus cereus” (priority 1986, dated 1990)

Each molecule was assayed on Bacillus cereus (assay: MIC, agar plate dilution method on standard nutrient agar). Settings: Bacillus cereus spores, 37° C., 24 hours, judged with the naked eye.
Assay type: cell-based
Method: (§1) The minimum growth inhibiting concentration (MIC) of various antibacterial substances against Bacillus cereus and other general putrefying bacteria were measured by using a standard nutrient agar (made by Difco Corp.) and by introducing the agar plate dilution method.
(§2) On a plain culture medium on which chemicals were placed in a stepwise dilution system the liquid spore suspension (×10^8 /ml) with respect to the strains of the genus of Bacillus and the respective pre-culture mediums (37° C., 24 hours) provided by Brain Heart Infusion Broth with respect to the other strains were smeared.

| Molecule | minimum growth inhibiting concentration (MIC) [%] |
| --- | --- |
| protamine sulfate | 0.1 |

Same assay, conditions: Bacillus cereus spores, 37° C., 24 hours, judged with the naked eye; in %

| Molecule | minimum growth inhibiting concentration (MIC) |
| --- | --- |
| CCCCCCCCCCCC(=O)OCC(O)CO (stereo not shown) [Lauric acid monoglyceride] | 0.0025 |
| O=P1([O-])OP(=O)([O-])OP(=O)([O-])OP(=O)([O-])OP(=O)([O-])OP(=O)([O-])O1.[Na+].[Na+].[Na+].[Na+].[Na+].[Na+] [Sodium hexametaphosphate] | 0.125 |

Same assay, conditions: standard nutrient agar, result in words

| Molecule | growth inhibition effect against Bacillus cereus |
| --- | --- |
| CCCCCCCCCCCC(=O)OCC(O)CO (stereo not shown) [Lauric acid monoglyceride] | showed effectiveness |
| O=P1([O-])OP(=O)([O-])OP(=O)([O-])OP(=O)([O-])OP(=O)([O-])OP(=O)([O-])O1.[Na+].[Na+].[Na+].[Na+].[Na+].[Na+] [Sodium hexametaphosphate] | showed effectiveness |
| protamine | showed effectiveness |

Each molecule was assayed on Bacillus coaglans in the same assay as above. Settings: Bacillus coaglans spores, 37° C., 24 hours.
Assay type: cell-based
Method: as §1, §2

| Molecule | minimum growth inhibiting concentration (MIC) [%] |
| --- | --- |
| protamine sulfate | 0.05 |

Same assay, conditions: Bacillus coaglans spores, 37° C., 24 hours; in %

| Molecule | minimum growth inhibiting concentration (MIC) |
| --- | --- |
| CCCCCCCCCCCC(=O)OCC(O)CO (stereo not shown) [Lauric acid monoglyceride] | 0.0025 |
| O=P1([O-])OP(=O)([O-])OP(=O)([O-])OP(=O)([O-])OP(=O)([O-])OP(=O)([O-])O1.[Na+].[Na+].[Na+].[Na+].[Na+].[Na+] [Sodium hexametaphosphate] | 0.125 |

Each molecule was assayed on Bacillus licheniformis in the same assay as above. Settings: Bacillus licheniformis spores, 37° C., 24 hours.
Assay type: cell-based
Method: as §1, §2

| Molecule | minimum growth inhibiting concentration (MIC) [%] |
| --- | --- |
| protamine sulfate | 0.05 |

Same assay, conditions: Bacillus licheniformis spores, 37° C., 24 hours; in %

| Molecule | minimum growth inhibiting concentration (MIC) |
| --- | --- |
| CCCCCCCCCCCC(=O)OCC(O)CO (stereo not shown) [Lauric acid monoglyceride] | 0.0025 |
| O=P1([O-])OP(=O)([O-])OP(=O)([O-])OP(=O)([O-])OP(=O)([O-])OP(=O)([O-])O1.[Na+].[Na+].[Na+].[Na+].[Na+].[Na+] [Sodium hexametaphosphate] | 0.125 |

These molecules were tested on Bacillus megaterium in the same assay as above. Settings: Bacillus megaterium spores, 37° C., 24 hours.
Assay type: cell-based
Method: as §1, §2

| Molecule | minimum growth inhibiting concentration (MIC) [%] |
| --- | --- |
| protamine sulfate | 0.05 |

Same assay, conditions: Bacillus megaterium spores, 37° C., 24 hours; in %

| Molecule | minimum growth inhibiting concentration (MIC) |
| --- | --- |
| CCCCCCCCCCCC(=O)OCC(O)CO (stereo not shown) [Lauric acid monoglyceride] | 0.0025 |
| O=P1([O-])OP(=O)([O-])OP(=O)([O-])OP(=O)([O-])OP(=O)([O-])OP(=O)([O-])O1.[Na+].[Na+].[Na+].[Na+].[Na+].[Na+] [Sodium hexametaphosphate] | 0.125 |

Each molecule was assayed on Bacillus subtilis in the same assay as above. Settings: Bacillus subtilis spores, 37° C., 24 hours.
Assay type: cell-based
Method: as §1, §2

| Molecule | minimum growth inhibiting concentration (MIC) [%] |
| --- | --- |
| protamine sulfate | 0.05 |

Same assay, conditions: Bacillus subtilis spores, 37° C., 24 hours; in %

| Molecule | minimum growth inhibiting concentration (MIC) |
| --- | --- |
| CCCCCCCCCCCC(=O)OCC(O)CO (stereo not shown) [Lauric acid monoglyceride] | 0.0025 |
| O=P1([O-])OP(=O)([O-])OP(=O)([O-])OP(=O)([O-])OP(=O)([O-])OP(=O)([O-])O1.[Na+].[Na+].[Na+].[Na+].[Na+].[Na+] [Sodium hexametaphosphate] | 0.125 |

These molecules were tested on Lactobacillus casei in the same assay as above. Settings: 37° C., 24 hours.
Assay type: cell-based
Method: as §1, §2

| Molecule | minimum growth inhibiting concentration (MIC) [%] |
| --- | --- |
| CCCCCCCCCCCC(=O)OCC(O)CO (stereo not shown) [Lauric acid monoglyceride] | 0.01 |
| protamine sulfate | 0.1 |

Same assay, conditions: 37° C., 24 hours, in %

| Molecule | minimum growth inhibiting concentration (MIC) |
| --- | --- |
| O=P1([O-])OP(=O)([O-])OP(=O)([O-])OP(=O)([O-])OP(=O)([O-])OP(=O)([O-])O1.[Na+].[Na+].[Na+].[Na+].[Na+].[Na+] [Sodium hexametaphosphate] | 0.125 |

Each molecule was assayed on Leuconostoc mesenteroides in the same assay as above. Settings: 37° C., 24 hours.
Assay type: cell-based
Method: as §1, §2

| Molecule | minimum growth inhibiting concentration (MIC) [%] |
| --- | --- |
| CCCCCCCCCCCC(=O)OCC(O)CO (stereo not shown) [Lauric acid monoglyceride] | 0.01 |
| protamine sulfate | 0.1 |

Same assay, conditions: 37° C., 24 hours, in %

| Molecule | minimum growth inhibiting concentration (MIC) |
| --- | --- |
| O=P1([O-])OP(=O)([O-])OP(=O)([O-])OP(=O)([O-])OP(=O)([O-])OP(=O)([O-])O1.[Na+].[Na+].[Na+].[Na+].[Na+].[Na+] [Sodium hexametaphosphate] | 0.125 |

These molecules were tested on Staphylococcus aureus in the same assay as above. Settings: 37° C., 24 hours.
Assay type: cell-based
Method: as §1, §2

| Molecule | minimum growth inhibiting concentration (MIC) [%] |
| --- | --- |
| CCCCCCCCCCCC(=O)OCC(O)CO (stereo not shown) [Lauric acid monoglyceride] | 0.01 |
| protamine sulfate | 0.05 |

Same assay, conditions: 37° C., 24 hours, in %

| Molecule | minimum growth inhibiting concentration (MIC) |
| --- | --- |
| O=P1([O-])OP(=O)([O-])OP(=O)([O-])OP(=O)([O-])OP(=O)([O-])OP(=O)([O-])O1.[Na+].[Na+].[Na+].[Na+].[Na+].[Na+] [Sodium hexametaphosphate] | 0.125 |

The molecules below were run on Streptococcus faecalis in the same assay as above. Settings: 37° C., 24 hours.
Assay type: cell-based
Method: as §1, §2

| Molecule | minimum growth inhibiting concentration (MIC) [%] |
| --- | --- |
| CCCCCCCCCCCC(=O)OCC(O)CO (stereo not shown) [Lauric acid monoglyceride] | 0.01 |
| protamine sulfate | 0.1 |

Same assay, conditions: 37° C., 24 hours, in %

| Molecule | minimum growth inhibiting concentration (MIC) |
| --- | --- |
| O=P1([O-])OP(=O)([O-])OP(=O)([O-])OP(=O)([O-])OP(=O)([O-])OP(=O)([O-])O1.[Na+].[Na+].[Na+].[Na+].[Na+].[Na+] [Sodium hexametaphosphate] | 0.125 |

What follows are molecules tested on total viable bacteria (assay: Keeping test, cooked rice not contaminated with Bacillus cereus, 30° C.). Settings: time without smell of putrefaction or change in outward appearance, chemical 0.01% by weight.
Assay type: cell-based

| Molecule | Effective keeping time [h] |
| --- | --- |
| CCCCCCCCCCCC(=O)OCC(O)CO (stereo not shown) [Lauric acid monoglyceride] | 40.0 |

Same assay, conditions: time without smell of putrefaction or change in outward appearance, chemical 0.5% by weight

| Molecule | Effective keeping time [h] |
| --- | --- |
| O=P1([O-])OP(=O)([O-])OP(=O)([O-])OP(=O)([O-])OP(=O)([O-])OP(=O)([O-])O1.[Na+].[Na+].[Na+].[Na+].[Na+].[Na+] [Sodium hexametaphosphate] | 35.0 |

The molecules below were run on Bacillus cereus (assay: Keeping test, cooked rice contaminated with Bacillus cereus, 30° C.). Settings: cooked rice (Example 4), result in words.
Assay type: cell-based
Method: Two hundred grams of polished rice was washed in water, and with the addition of 240 ml of water, it was cooked for approximately 15 minutes in an electric rice-cooker which was of the type in public use. The rice cooked was left standing in hot steam for 10 minutes, and then left to cool off at room temperature. On the other hand, a suspension of spores of Bacillus cereus was prepared and added to the cooked rice, which had cooled off, in the proportion of n×10^2 to 1 g final specimen. Specimens were prepared by mixing the rice evenly with addition of the spores.
The cooked rice was put in a plastic case for each 120 g and its temperature was maintained at 30° C., and the number of total viable bacteria and the number of Bacillus cereus were measured periodically using a standard agar culture medium (37° C., 48 hours) and a polymyxin BCW agar culture medium with 5% egg yellow (37° C., 24 hours) for each In parallel with this measurement of the bacterium number, the specimens were examined concerning the outward appearance and the possible smell of putrefaction.
Each of the chemicals shown in Table 4 was dissolved in 20 ml of water to form an aqueous solution of a set concentration.

| Molecule | effectiveness against Bacillus cereus in tests with actual food |
| --- | --- |
| protamine | only protamine has proved to be effective |

Same assay, conditions: cooked rice contaminated with Bacillus cereus, 30° C.; time until Bacillus cereus 10^6 /g or more; chemical 0.01% by weight

| Molecule | Effective keeping time [h] |
| --- | --- |
| CCCCCCCCCCCC(=O)OCC(O)CO (stereo not shown) [Lauric acid monoglyceride] | 8.2 |

Same assay, conditions: cooked rice contaminated with Bacillus cereus, 30° C.; time until Bacillus cereus 10^6 /g or more; chemical 0.5% by weight

| Molecule | Effective keeping time [h] |
| --- | --- |
| O=P1([O-])OP(=O)([O-])OP(=O)([O-])OP(=O)([O-])OP(=O)([O-])OP(=O)([O-])O1.[Na+].[Na+].[Na+].[Na+].[Na+].[Na+] [Sodium hexametaphosphate] | 9.2 |

What follows are molecules tested on total viable active bacteria (assay: Keeping test, potato salad not contaminated with Bacillus cereus, 30° C.). Settings: time without smell of putrefaction or change in outward appearance, chemical 0.01% by weight.
Assay type: cell-based
Method: (§3) Potato salad was prepared according to the following recipe.
(§4) Mayonnaise in the proportion of 10% by weight against the above materials was combined with various chemicals of prescribed concentrations listed in Table 5 and these were evenly mixed with the above food materials. Mixed specimens were prepared by inoculating Bacillus cereus in the form of a spore suspension in such a way as to make the bacterial number n×10^2 per gram on the final specimen.
(§5) The potato salad thus prepared was packed into plastic containers and left standing at 30° C. The bacterial number of total viable active bacteria and that of Bacillus cereus were measured with respect to the changes with time by the same method as in Example 1.
(§6) The effective keeping time and the figures in the upper and the lower spaces for each chemical in the list are used in the same meanings as in Example 4.

| Molecule | Effective keeping time [h] |
| --- | --- |
| CCCCCCCCCCCC(=O)OCC(O)CO (stereo not shown) [Lauric acid monoglyceride] | 22.0 |

Same assay, conditions: time without smell of putrefaction or change in outward appearance, chemical 0.1% by weight

| Molecule | Effective keeping time [h] |
| --- | --- |
| C/C=C/C=C/C(=O)O [Sorbic acid] | 96.0 |
| O=C([O-])c1ccccc1.[Na+] [sodium benzoate] | 92.0 |

Same assay, conditions: time without smell of putrefaction or change in outward appearance, chemical 1% by weight

| Molecule | Effective keeping time [h] |
| --- | --- |
| CCO [Ethyl alcohol] | 29.2 |

What follows are molecules tested on Bacillus cereus (assay: Keeping test, potato salad contaminated with Bacillus cereus, 30° C.). Settings: time until Bacillus cereus 10^6 /g or more, chemical 0.01% by weight.
Assay type: cell-based
Method: as §3, §4
The same Bacillus cereus as in Example 1 was employed for this example.
as §5, §6

| Molecule | Effective keeping time [h] |
| --- | --- |
| CCCCCCCCCCCC(=O)OCC(O)CO (stereo not shown) [Lauric acid monoglyceride] | 11.5 |

Same assay, conditions: time until Bacillus cereus 10^6 /g or more, chemical 0.1% by weight

| Molecule | Effective keeping time [h] |
| --- | --- |
| C/C=C/C=C/C(=O)O [Sorbic acid] | 38.6 |
| O=C([O-])c1ccccc1.[Na+] [sodium benzoate] | 36.2 |

Same assay, conditions: time until Bacillus cereus 10^6 /g or more, chemical 1% by weight

| Molecule | Effective keeping time [h] |
| --- | --- |
| CCO [Ethyl alcohol] | 10.0 |
